We go through one compound from patent US6537587B1, “Compositions containing muscle-derived active agents” (Can-Fite Biopharma Ltd., priority 1999, dated 2003).

The data set deals with peripheral blood leukocytes and neutrophils. Conditions: cyclophosphamide only, 50 mg/kg i.p.; blood at 96 hours; FIG. 4. As for the experimental part:
Mice were injected intraperitoneally (i.p.) with 50 mg/kg body weight of cyclophospharnide. The mice were then divided into the following three groups:
2. Mice receiving cyclophosphamide only (control 1); and
3. An additional group of mice received oral administration of water only (control 2).
Ninety six hours after the beginning of receiving the above treatments, blood samples were taken from each of the treated mice. Blood cell counts were carried out in a Coulter counter and differential cell counts were performed on smear preparations stained with May-Grunvald-Giemsa solution.

As to `O=P1(N(CCCl)CCCl)NCCCO1` (centres unmarked) [cyclophosphamide], the “number of neutrophils compared to mice without chemotherapeutic treatment (control 2)” value was “reduced” and the “number of peripheral blood leukocytes compared to mice without chemotherapeutic treatment (control 2)” value was “reduced”.
